Key:
ROS1-G2032R = target: T1, ROS1-G2032R (Homo sapiens, UniProt P08922, G2032R); assay: Biochemical kinase assay, ROS1-G2032R kinase domain; conditions: apparent inhibitory constant, Morrison equation; ATP 2 mM in substrate solution; read-out: ROS1-G2032R Ki^app
T1 construct: purchased SignalChem R14-12BG
Summary of the method: (§1)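 Kinetic read: 485 nm, 2-min intervals, 120 min, 30 °C. Substrate mix — ATP 2 mM, AQT0101 26 μM, HEPES 50 mM pH 7.5, MgCl2 10 mM. Output: Ki^app, Morrison equation.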

[1] = target: T2, Ba/F3 cells EML4-ALK L1196M/G1202R (variant 1) (Homo sapiens, UniProt Q9UM73, G1202R/L1196M); assay: Ba/F3 cell proliferation assay, EML4-ALK L1196M/G1202R (variant 1); format: cell-based; conditions: 72 hours, CellTiter-Glo
T2 construct: echinoderm microtubule-associated protein-like 4 (EML4) gene and the ALK tyrosine kinase domain; host or cells: Ba/F3 (RIKEN), retroviral pMSCV-puro; the other entry of the earlier key: EML4 (Q9HC35, Echinoderm microtubule-associated protein-like 4)
T2 sequence (Q9UM73 with tags, fused parts or gaps L1196M/G1202R): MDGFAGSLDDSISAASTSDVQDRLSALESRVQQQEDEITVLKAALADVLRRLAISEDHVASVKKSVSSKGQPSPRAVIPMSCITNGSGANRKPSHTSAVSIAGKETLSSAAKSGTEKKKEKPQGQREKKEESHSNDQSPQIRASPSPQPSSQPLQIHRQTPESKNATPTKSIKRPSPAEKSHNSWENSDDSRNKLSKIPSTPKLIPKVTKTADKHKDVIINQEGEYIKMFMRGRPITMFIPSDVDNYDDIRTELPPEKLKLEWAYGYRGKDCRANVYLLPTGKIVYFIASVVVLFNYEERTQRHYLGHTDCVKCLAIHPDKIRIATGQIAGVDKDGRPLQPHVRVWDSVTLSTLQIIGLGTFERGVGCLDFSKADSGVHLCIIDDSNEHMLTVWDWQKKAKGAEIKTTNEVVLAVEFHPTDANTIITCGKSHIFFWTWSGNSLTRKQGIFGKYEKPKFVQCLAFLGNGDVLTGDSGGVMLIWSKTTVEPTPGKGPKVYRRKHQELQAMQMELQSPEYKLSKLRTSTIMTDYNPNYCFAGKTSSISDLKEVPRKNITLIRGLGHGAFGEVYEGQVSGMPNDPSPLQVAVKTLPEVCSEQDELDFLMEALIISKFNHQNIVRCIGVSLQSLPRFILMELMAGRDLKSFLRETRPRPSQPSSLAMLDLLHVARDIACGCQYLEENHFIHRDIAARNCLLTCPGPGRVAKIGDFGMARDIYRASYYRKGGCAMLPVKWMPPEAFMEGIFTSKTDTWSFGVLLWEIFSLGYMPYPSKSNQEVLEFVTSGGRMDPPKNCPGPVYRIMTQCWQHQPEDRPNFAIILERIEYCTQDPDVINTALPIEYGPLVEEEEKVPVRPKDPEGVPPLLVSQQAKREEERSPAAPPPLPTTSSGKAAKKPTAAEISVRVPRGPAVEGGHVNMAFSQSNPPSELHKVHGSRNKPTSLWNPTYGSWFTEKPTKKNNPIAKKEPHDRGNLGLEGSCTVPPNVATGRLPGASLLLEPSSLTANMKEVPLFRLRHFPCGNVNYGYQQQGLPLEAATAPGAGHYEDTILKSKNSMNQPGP
Summary of the method: (§2)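 IL-3-independent Ba/F3 monoclones, puromycin-selected, transduced with fusion genes; 1,000 cells/well, 1 day rest, 3-fold compound series, 72 h. Read: CellTiter-Glo luminescence. IC50 from % inhibition vs concentration, 4-parameter logistic.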

[2] = tested on: TPM3-NTRK1-wt IC50 / primary target IC50 (e.g. CD74-ROS1-wt); assay: TRKA selectivity in Ba/F3 cells (TRKA potency divided by primary target potency); format: cell-based; conditions: for TPM3-NTRK1-wt/CD74-ROS1-G2032R selectivity ratio: TRKA potency / CD74-ROS1-G2032R potency; for TPM3-NTRK1-wt/CD74-ROS1-wt selectivity ratio: TRKA potency / CD74-ROS1-wt potency; for TPM3-NTRK1-wt/EML4-ALK-L1196M-G1202R selectivity ratio: TRKA potency / EML4-ALK-L1196M-G1202R potency; for TPM3-NTRK1-wt/EML4-ALK-wt selectivity ratio: TRKA potency / EML4-ALK-wt potency
Method: TRKA selectivity was calculated by dividing a compound's TRKA potency by its primary target potency (e.g. TPM3-NTRK1-wt IC50/CD74-ROS1-wt IC50). Compound selectivity can be interpreted by binning ratio values: bin A for very high selectivity, ratio >30-fold; bin B for high selectivity, ratio >10-fold; bin C for moderate selectivity, ratio ≥1; and bin D for low selectivity, ratio <1. […] (nd=not determined).

[3] = target: T3, Ba/F3 cells EML4-ALK wt (variant 1) (Homo sapiens, UniProt Q9UM73); assay: Ba/F3 cell proliferation assay, EML4-ALK wt (variant 1); format: cell-based; conditions: 72 hours, CellTiter-Glo
T3 construct: echinoderm microtubule-associated protein-like 4 (EML4) gene and the ALK tyrosine kinase domain; host or cells: Ba/F3 (RIKEN), retroviral pMSCV-puro; the other entry of the earlier key: EML4 (Q9HC35, Echinoderm microtubule-associated protein-like 4)
T3 sequence (Q9UM73 with tags, fused parts or gaps): as the sequence (Q9UM73 with tags, fused parts or gaps L1196M/G1202R) above, with M635L, R641G counted along it
Summary of the method: as §2

[4] = target: T4, Ba/F3 cells CD74-ROS1 wild-type (wt) (Homo sapiens, UniProt P08922); assay: Ba/F3 cell proliferation assay, CD74-ROS1 wild-type; format: cell-based; conditions: 72 hours, CellTiter-Glo
T4 construct: fusion of the C-terminus of ROS1 with the N-terminus of various partner proteins; host or cells: Ba/F3 (RIKEN), retroviral pMSCV-puro; the other entry of the earlier key: CD74 (P04233, HLA class II histocompatibility antigen gamma chain)
T4 sequence (P08922 1883-2347 limits assumed): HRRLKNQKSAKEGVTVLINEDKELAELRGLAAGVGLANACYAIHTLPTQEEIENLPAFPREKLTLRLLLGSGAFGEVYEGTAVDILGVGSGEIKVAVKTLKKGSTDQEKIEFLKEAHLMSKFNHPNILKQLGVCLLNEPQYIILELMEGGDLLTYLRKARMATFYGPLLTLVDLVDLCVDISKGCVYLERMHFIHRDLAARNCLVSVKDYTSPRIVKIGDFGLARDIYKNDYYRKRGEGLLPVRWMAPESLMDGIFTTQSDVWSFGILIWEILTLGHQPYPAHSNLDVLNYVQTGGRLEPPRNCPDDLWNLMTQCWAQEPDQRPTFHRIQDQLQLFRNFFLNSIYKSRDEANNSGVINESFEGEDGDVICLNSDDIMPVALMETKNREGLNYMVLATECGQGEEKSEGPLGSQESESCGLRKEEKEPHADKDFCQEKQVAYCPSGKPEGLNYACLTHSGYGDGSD
Summary of the method: (§3)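 IL-3-independent Ba/F3 CD74-ROS1 lines, puromycin-selected monoclones; 1,000 cells/well, plated 1 d before dosing; 3-fold serial dilutions, 72 h; CellTiter-Glo luminescence; IC50 by 4-parameter logistic regression.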

ROS1-wt = target: T5, ROS1-wt (Homo sapiens, UniProt P08922); assay: Biochemical kinase assay, ROS1-wt kinase domain; conditions: apparent inhibitory constant, Morrison equation; ATP 2 mM in substrate solution; read-out: ROS1-wt Ki^app
T5 construct: purchased Carna 08-163
T5 sequence (P08922 1945-2222 limits assumed): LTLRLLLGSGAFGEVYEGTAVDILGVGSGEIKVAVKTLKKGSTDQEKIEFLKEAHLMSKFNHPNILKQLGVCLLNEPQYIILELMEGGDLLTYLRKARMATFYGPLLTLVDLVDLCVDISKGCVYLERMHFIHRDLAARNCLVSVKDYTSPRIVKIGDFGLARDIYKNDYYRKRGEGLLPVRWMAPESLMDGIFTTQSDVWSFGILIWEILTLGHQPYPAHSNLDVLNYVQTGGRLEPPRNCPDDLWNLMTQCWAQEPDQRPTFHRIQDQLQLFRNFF
Summary of the method: as §1

Ba/F3 cells TPM3-TRKA = target: T6, Ba/F3 cells TPM3-TRKA (Homo sapiens, UniProt P04629); assay: Ba/F3 cell proliferation assay, TPM3-TRKA; format: cell-based; conditions: 72 hours, CellTiter-Glo, read-out: TPM3-NTRK1-wt IC50
T6 construct: host or cells: Ba/F3 (RIKEN), retroviral pMSCV-puro; the other entry of the earlier key: TPM3 (P06753, Tropomyosin alpha-3 chain)
T6 sequence (P04629 510-796 limits assumed): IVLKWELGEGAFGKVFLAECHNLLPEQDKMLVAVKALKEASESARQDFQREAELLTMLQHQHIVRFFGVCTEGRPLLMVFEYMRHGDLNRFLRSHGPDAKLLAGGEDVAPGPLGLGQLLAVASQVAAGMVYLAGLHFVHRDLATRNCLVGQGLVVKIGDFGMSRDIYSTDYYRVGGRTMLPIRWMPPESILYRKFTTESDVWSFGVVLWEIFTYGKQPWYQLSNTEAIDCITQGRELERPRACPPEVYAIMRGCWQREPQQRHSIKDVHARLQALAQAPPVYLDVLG
Summary of the method: as §2

TRKA-wt = target: T7, TRKA-wt (Homo sapiens, UniProt P04629); assay: Biochemical kinase assay, TRKA-wt kinase domain; conditions: apparent inhibitory constant, Morrison equation; ATP 2 mM in substrate solution; read-out: TRKA-wt Ki^app
T7 construct: or TRKA-wt (1 nM, BPS Bio, 40280) kinase domains in buffer; purchased BPS Bio 40280
T7 sequence (P04629 510-781 limits assumed): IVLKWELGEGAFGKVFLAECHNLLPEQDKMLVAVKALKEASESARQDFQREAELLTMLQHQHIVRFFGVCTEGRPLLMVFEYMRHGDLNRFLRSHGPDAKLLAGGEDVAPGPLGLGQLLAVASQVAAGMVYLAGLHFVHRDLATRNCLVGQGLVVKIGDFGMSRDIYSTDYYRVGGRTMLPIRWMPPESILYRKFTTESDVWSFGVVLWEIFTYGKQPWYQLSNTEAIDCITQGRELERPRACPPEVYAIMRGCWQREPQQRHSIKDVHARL
Summary of the method: (§4)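 Compound in DMSO added first, then substrate solution (ATP 2 mM; AQT0101 or AQT0104, 26 μM; pH 7.5 HEPES, 10 mM MgCl2), then kinase solution with enzyme at 0.5–3 nM depending on construct. Kinetic read every 2 min for 120 min at 30° C; Ki^app by Morrison regression.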

ALK-wt = target: T8, ALK-wt (Homo sapiens, UniProt Q9UM73); assay: Biochemical kinase assay, ALK-wt kinase domain; conditions: apparent inhibitory constant, Morrison equation; ATP 2 mM in substrate solution; read-out: ALK-wt Ki^app
T8 construct: purchased Carna 08-518
T8 sequence (Q9UM73 1116-1392 limits assumed): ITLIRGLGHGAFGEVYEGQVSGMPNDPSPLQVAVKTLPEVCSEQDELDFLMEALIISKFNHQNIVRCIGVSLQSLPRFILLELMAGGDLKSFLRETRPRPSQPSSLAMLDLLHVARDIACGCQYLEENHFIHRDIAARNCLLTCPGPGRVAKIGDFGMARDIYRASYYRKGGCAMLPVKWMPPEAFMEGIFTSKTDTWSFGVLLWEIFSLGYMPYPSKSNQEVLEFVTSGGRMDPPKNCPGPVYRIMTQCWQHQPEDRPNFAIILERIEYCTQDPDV
Summary of the method: as §4

ALK L1196M/G1202R = target: T9, ALK L1196M/G1202R (Homo sapiens, UniProt Q9UM73, G1202R/L1196M); assay: Biochemical kinase assay, ALK L1196M/G1202R kinase domain; conditions: apparent inhibitory constant, Morrison equation; ATP 2 mM in substrate solution; read-out: ALK-L1196M-G1202R Ki^app
T9 construct: purchased SignalChem A19-12NG
T9 sequence (Q9UM73 1116-1392 L1196M/G1202R limits assumed): as the sequence (Q9UM73 1116-1392 limits assumed) above, with L81M, G87R counted along it
Summary of the method: as §4

[5] = target: T10, Ba/F3 cells CD74-ROS1 G2032R (Homo sapiens, UniProt P08922, G2032R); assay: Ba/F3 cell proliferation assay, CD74-ROS1 G2032R; format: cell-based; conditions: 72 hours, CellTiter-Glo
T10 construct: fusion of the C-terminus of ROS1 with the N-terminus of various partner proteins; host or cells: Ba/F3 (RIKEN), retroviral pMSCV-puro; the other entry of the earlier key: CD74 (P04233, HLA class II histocompatibility antigen gamma chain)
T10 sequence (P08922 1883-2347 G2032R limits assumed): as the sequence (P08922 1883-2347 limits assumed) above, with G150R counted along it
Summary of the method: as §3

T1 sequence (P08922 1945-2222 G2032R limits assumed): as the sequence (P08922 1945-2222 limits assumed) above, with G88R counted along it

Ki (ROS1-G2032R) [nM]	IC50 [1] [nM]	IC50 [3] [nM]	IC50 [4] [nM]	Ki (ROS1-wt) [nM]	IC50 (Ba/F3 cells TPM3-TRKA) [nM]	Ki (TRKA-wt) [nM]	Ki (ALK-wt) [nM]	Ki (ALK L1196M/G1202R) [nM]	IC50 [5] [nM]	Structure (SMILES)	TPM3-NTRK1-wt/CD74-ROS1-G2032R selectivity ratio [2]	TPM3-NTRK1-wt/CD74-ROS1-wt selectivity ratio [2]	TPM3-NTRK1-wt/EML4-ALK-L1196M-G1202R selectivity ratio [2]	TPM3-NTRK1-wt/EML4-ALK-wt selectivity ratio [2]
< 50	0.1 to 50	0.1 to 50	0.1 to 50	< 50	> 500	50 to 500	< 50	< 50	0.1 to 50	C[C@H]1Oc2cc(cnc2N)-c2c(C#N)ncn2Cc2ncc(F)cc2-c2ccc(F)cc21 [Example 48, (20R)-23-amino-11,17-difluoro-20-methyl-21-oxa-4,6,9,24-tetraazapentacyclo[20.3.1.0^2,^6.0^8,^13.0^14,^19]hexacosa-1(25),2,4,8(13),9,11,14,16,1 8,22(26),23-undecaene-3-carbonitrile]	A (bin A for very high selectivity, ratio >30-fold)	A (bin A for very high selectivity, ratio >30-fold)	B (bin B for high selectivity, ratio >10-fold)	A (bin A for very high selectivity, ratio >30-fold)
50 to 500	> 500	0.1 to 50	0.1 to 50	< 50	> 500	> 500	< 50	50 to 500	50 to 500	C[C@H]1Oc2cc(cnc2N)-c2c(C#N)cnn2Cc2ncsc2-c2ccc(F)cc21 [Example 49, (19R)-22-amino-16-fluoro-19-methyl-20oxa-11-thia-5,6,9,23-tetraazapentacyclo[19.3.1.0^2,^6.0^8,^12.0^13,^18]pentacosa-1(24),2,4,8(12),9,13,15,17,21(25),22-decaene-3-carbonitrile]	B (bin B for high selectivity, ratio >10-fold)	A (bin A for very high selectivity, ratio >30-fold)	C (bin C for moderate selectivity, ratio ≥1)	A (bin A for very high selectivity, ratio >30-fold)
50 to 500	50 to 500	0.1 to 50	0.1 to 50	< 50	> 500	50 to 500	< 50	< 50	0.1 to 50	CCc1noc2c1-c1cnc(N)c(c1)O[C@H](C)c1cc(F)ccc1-c1ncnn1C2 [Example 50, (19R)-3-ethyl-16-fluoro-19-methyl-5,20-dioxa-4,8,9,11,23-pentaazapentacyclo[19.3.1.0^2,^6.0^8,^12.0^13,^18]pentacosa-1(24),2(6),3,9,11,13,15,17,21(25),22-decaen-22-amine]	B (bin B for high selectivity, ratio >10-fold)	A (bin A for very high selectivity, ratio >30-fold)	C (bin C for moderate selectivity, ratio ≥1)	A (bin A for very high selectivity, ratio >30-fold)
< 50	0.1 to 50	0.1 to 50	0.1 to 50	< 50	> 500	> 500	< 50	< 50	0.1 to 50	C[C@H]1Oc2cc(cnc2N)-c2c(nnn2CC2CC2)Cc2nn(C)nc2-c2ccc(F)cc21 [Example 51, (19R)-3-(cyclopropylmethyl)-16-fluoro-10,19-dimethyl-20-oxa-3,4,5,9,10,11,23-heptaazapentacyclo[19.3.1.0^2,^6.0^8,^12.0^13,^18]pentacosa-1(24),2(6),4,8,11,13,15,17,21(25),22-decaen-22-amine]	A (bin A for very high selectivity, ratio >30-fold)	A (bin A for very high selectivity, ratio >30-fold)	A (bin A for very high selectivity, ratio >30-fold)	A (bin A for very high selectivity, ratio >30-fold)
< 50	50 to 500	0.1 to 50	0.1 to 50	< 50	> 500	> 500	< 50	< 50	0.1 to 50	C[C@H]1Oc2cc(cnc2N)-c2c(C3CCC3)noc2Cn2ncnc2-c2ccc(F)cc21 [Example 52, (19R)-3-cyclobutyl-16-fluoro-19-methyl-5,20-dioxa-4,8,9,11,23-pentaazapentacyclo[19.3.1.0^2,^6.0^8,^12.0^13,^18]pentacosa-1(24),2(6),3,9,11,13,15,17,21(25),22-decaen-22-amine]	A (bin A for very high selectivity, ratio >30-fold)	A (bin A for very high selectivity, ratio >30-fold)	C (bin C for moderate selectivity, ratio ≥1)	A (bin A for very high selectivity, ratio >30-fold)
< 50	50 to 500	0.1 to 50	0.1 to 50	< 50	> 500	> 500	< 50	< 50	0.1 to 50	CCn1nnc2c1-c1cnc(N)c(c1)O[C@H](C)c1cc(F)ccc1-c1scnc1C2 [Example 53, (19R)-3-ethyl-16-fluoro-19-methyl-20-oxa-11-thia-3,4,5,9,23-pentaazapentacyclo[19.3.1.0^2,^6.0^8,^12.0^13,^18]pentacosa-1(24),2(6).4,8(12),9,13,15,17,21(25),22-decaen-22-amine]	A (bin A for very high selectivity, ratio >30-fold)	A (bin A for very high selectivity, ratio >30-fold)	C (bin C for moderate selectivity, ratio ≥1)	B (bin B for high selectivity, ratio >10-fold)

Source: US12054498B2, “Heteroaromatic macrocyclic ether chemotherapeutic agents” (Nuvalent, Inc., priority 2020, dated 2024)
